Holding throughout (assay type): cell-based
Data set [1] in a line: Cytotoxicity in PHH natural infection assay (Cell Counting Kit-8). Particulars: HBV-infected primary human hepatocytes, CCK8. The procedure:
(§1) Detailed procedures regarding primary human hepatocyte (PHH) HBV natural infection assay are described as below. One tube of frozen PHH (10 million cells) is thawed in 37° C. water bath and then transferred to 20 mL of PHH thawing medium (Sigma, InVitroGRO HT Medium, Cat. S03319) with gently mixing. The cells were then centrifuged at […] for 5 min, the supernatant was discarded and the tube was refilled with 25 mL of PHH plating medium (Sigma, InVitroGRO CP Medium, Cat. 503317). The tube was shaken very gently to re-suspend all cells. 50 μl of cells were transferred to each well 384-well collagen I coated plate with appropriate liquid handling equipment, e.g. Integra VIAFLO384 or Agilent Bravo. The cells were then cultured for 24 hours in a cell incubator. For HBV infection, after PHH attachment on the culture plate, the plating medium was removed and replenished with PHH culture medium containing HBV virus. The PHH culture medium was prepared with Dulbecco's Modified Eagle Medium (DMEM)/F12 (1:1 in volume ratio) containing 10% fetal bovine serum (Gibco, Cat. 10099141), […] (Gibco, Cat. PHG03I1L), 20 ng/mL dexamethasone (Sigma, Cat. D4902-100 mg), 250 ng/mL human recombinant insulin (Gibco, Cat. 41400045) and 100 U/mL penicillin. HBV virus at 200 genome equivalent (GE) per cell with 4% PEG8000 (Sigma, Cat. P1458) containing culture medium were added to the PHH culture medium for infection. The cells were then cultured for 24 hours in cell incubator. Then the cell culture supernatant was removed. The HBV-infected PHH were cultured with sandwich culture method with PHH culture medium containing 1% DMSO and 0.25 mg/mL matrix gel for 72 hours. The supernatant was then refreshed with PHH culture medium containing different concentrations of testing compounds for two times with 72-hour interval. At the end of treatment, the supernatant was collected for viral markers measurements, including HBsAg, HBeAg, HBV DNA and cytotoxicity. HBsAg and HBeAg were detected using alphalisa method using their specific antibodies. For HBV DNA detection, HBV DNA Quantitative Fluorescence Diagnostic Kit (Sansure Biotech Inc.) was used following the manufacture's protocol. Cytotoxicity was determined using Cell Counting Kit-8 (CCK8, Dojindo Molecular Technologies, Inc.).

Data set [2] has as its system HBsAg. The data set is described as follows: PHH HBV natural infection assay, HBsAg (alphalisa). Particulars: Hepatitis B virus, Hepatocyte, 72 h, read-out: HBsAg IC50. The protocol:
as §1
(§2) The compounds of the present invention were tested for their capacity to inhibit HBsAg and HBeAg as described herein.
In general terms: Alpha assays give light when donor and acceptor beads are brought close together.

In data set [3] the test system is HBeAg. In words: PHH HBV natural infection assay, HBeAg (alphalisa). The settings on record: Hepatitis B virus, Hepatocyte, 72 h, read-out: HbeAg IC50. The procedure: as §1, §2

As for `O=C(NC12CC(c3nc4cc(Cl)ccc4o3)(C1)C2)c1cccc(Br)c1` [Example 19, 3-bromo-N-[3-(5-chloro-1,3-benzoxazol-2-yl)-1-bicyclo[1.1.1]pentanyl]benzamide], the CC50 (usually the concentration that lowers cell viability or growth by half) at 144 h in data set [1] is more than 100 µM. Also, the IC50 (as a rule, the concentration that gives 50% inhibition) in data set [2] was found to be 2.61 µM; in data set [3], 3.23 µM.
As to `O=C(NC12CC(c3nc4cc(Cl)ccc4o3)(C1)C2)c1ccc(Br)cc1` [Example 20, 4-bromo-N-[3-(5-chloro-1,3-benzoxazol-2-yl)-1-bicyclo[1.1.1]pentanyl]benzamide], in data set [1], the CC50 at 144 h was more than 100 µM. Further, the IC50 is 4.28 µM in data set [2] and 7.21 µM in data set [3].
Consider `CSc1cccc(C(=O)NC23CC(c4nc5cc(Cl)ccc5o4)(C2)C3)c1` [Example 21, N-[3-(5-chloro-1,3-benzoxazol-2-yl)-1-bicyclo[1.1.1]pentanyl]-3-methylsulfanyl-benzamide], for which the CC50 at 144 h in data set [1] is more than 100 µM. Moreover, the IC50 in data set [2] stood at 2.6 µM; in data set [3], 1.87 µM.
`CS(=O)(=O)c1cccc(C(=O)NC23CC(c4nc5cc(Cl)ccc5o4)(C2)C3)c1` [Example 22, N-[3-(5-chloro-1,3-benzoxazol-2-yl)-1-bicyclo[1.1.1]pentanyl]-3-methylsulfonyl-benzamide] displayed a half-maximal cytotoxic concentration (CC50) at 144 h in data set [1] of more than 100 µM. Further, the results for the IC50 in data set [2] and in data set [3] were 3 µM and 2.33 µM, respectively.
Compound `O=C(NC12CC(c3nc4cc(Cl)ccc4o3)(C1)C2)c1ccnc(C(F)(F)F)c1` [Example 23, N-[3-(5-chloro-1,3-benzoxazol-2-yl)-1-bicyclo[1.1.1]pentanyl]-2-(trifluoromethyl)pyridine-4-carboxamide] showed a half-maximal cytotoxic concentration (CC50) at 144 h in data set [1] of 96.9 µM. Besides, the 50% inhibitory concentration (IC50) in data set [2] worked out at 2.05 µM; in data set [3], 1.7 µM.
In data set [1], `O=C(NC12CC(c3nc4cc(Cl)ccc4o3)(C1)C2)c1cncc(C(F)(F)F)c1` [Example 24, N-[3-(5-chloro-1,3-benzoxazol-2-yl)-1-bicyclo[1.1.1]pentanyl]-5-(trifluoromethyl)pyridine-3-carboxamide] showed a CC50 at 144 h of more than 100 µM. For the same compound, the IC50 in data set [2] was 5.23 µM; in data set [3], 8.82 µM.
Taken in the same sequence, the figures for `O=C(NC12CC(c3nc4cc(Cl)ccc4o3)(C1)C2)c1ccc(C(F)(F)F)nc1` [Example 25, N-[3-(5-chloro-1,3-benzoxazol-2-yl)-1-bicyclo[1.1.1]pentanyl]-6-(trifluoromethyl)pyridine-3-carboxamide] were more than 100 µM, 8.71 µM and 4.36 µM.
The compound `O=C(NC12CC(c3nc4cc(Cl)ccc4o3)(C1)C2)c1cnc(C(F)(F)F)nc1` [Example 26, N-[3-(5-chloro-1,3-benzoxazol-2-yl)-1-bicyclo[1.1.1]pentanyl]-2-(trifluoromethyl)pyrimidine-5-carboxamide] gave a half-maximal cytotoxic concentration (CC50) at 144 h in data set [1] of 88.2 µM. Further, the IC50 in data set [2] was 6.29 µM; in data set [3] it was 3.67 µM.
Taken in the same sequence, the figures for `O=C(NC12CC(c3nc4cc(Cl)ccc4o3)(C1)C2)c1ccc(C(F)(F)F)nn1` [Example 27, N-[3-(5-chloro-1,3-benzoxazol-2-yl)-1-bicyclo[1.1.1]pentanyl]-6-(trifluoromethyl)pyridazine-3-carboxamide] were more than 100 µM, 3.85 µM and 1.12 µM.
In turn, `O=C(NC12CC(c3nc4cc(Cl)ccc4o3)(C1)C2)c1cc(Cl)ccc1Cl` [Example 28, 2,5-dichloro-N-[3-(5-chloro-1,3-benzoxazol-2-yl)-1-bicyclo[1.1.1]pentanyl]benzamide] registered a CC50 at 144 h in data set [1] of more than 100 µM. Further, the concentration for half-maximal inhibition (IC50) in data set [2] was determined as 9.97 µM; in data set [3] it was 10.1 µM.
`CS(=N)(=O)c1cccc(C(=O)NC23CC(c4nc5cc(Cl)ccc5o4)(C2)C3)c1` (stereo not drawn) [Example 29, N-[3-(5-chloro-1,3-benzoxazol-2-yl)-1-bicyclo[1.1.1]pentanyl]-3-(methylsulfonimidoyl)benzamide]: the CC50 at 144 h in data set [1] was more than 100 µM. The half-inhibitory concentration (IC50) in data set [2] turned out to be 3.85 µM; in data set [3], 3.06 µM.
The matching figures for `O=C(NC12CC(c3nc4cc(Cl)ccc4o3)(C1)C2)C1CC2(C1)CS(=O)(=O)C2` [Example 30, N-[3-(5-chloro-1,3-benzoxazol-2-yl)-1-bicyclo[1.1.1]pentanyl]-2,2-dioxo-2lambda6-thiaspiro[3.3]heptane-6-carboxamide]: more than 100 µM, 9.82 µM and 7.77 µM.
Regarding `CCCC(=O)NS(=O)(=O)c1ccc(C(=O)NC23CC(c4nc5cc(Cl)ccc5o4)(C2)C3)o1` [Example 31, 5-(butanoylsulfamoyl)-N-[3-(5-chloro-1,3-benzoxazol-2-yl)-1-bicyclo[1.1.1]pentanyl]furan-2-carboxamide], in data set [1], the CC50 at 144 h is more than 100 µM. For the same compound, the IC50 in data set [2] is 3.63 µM; in data set [3] it was 4.78 µM.
`CS(=O)(=O)c1ccc(C(=O)NC23CC(c4nc5ccc(Cl)cc5o4)(C2)C3)o1` [Example 32, N-[3-(6-chloro-1,3-benzoxazol-2-yl)-1-bicyclo[1.1.1]pentanyl]-5-methylsulfonyl-furan-2-carboxamide]: the CC50 at 144 h in data set [1] is more than 100 µM. Further, the IC50 is 5.67 µM in data set [2] and 3.46 µM in data set [3].
Taken in the same sequence, the figures for `O=C(NC12CC(c3nc4ccc(Cl)cc4o3)(C1)C2)c1ccc(S(=O)(=O)C2CC2)o1` [Example 33, N-[3-(6-chloro-1,3-benzoxazol-2-yl)-1-bicyclo[1.1.1]pentanyl]-5-cyclopropylsulfonyl-furan-2-carboxamide] were more than 100 µM, 0.792 µM and 0.58 µM.
The matching figures for `O=C(NC12CC(c3nc4ccc(Cl)cc4o3)(C1)C2)c1ccc(S(=O)(=O)CC2CC2)o1` [Example 34, N-[3-(6-chloro-1,3-benzoxazol-2-yl)-1-bicyclo[1.1.1]pentanyl]-5-(cyclopropylmethylsulfonyl)furan-2-carboxamide]: 95.4 µM, 3.54 µM and 2.79 µM.
As for `CS(=N)(=O)c1ccc(C(=O)NC23CC(c4nc5ccc(Cl)cc5o4)(C2)C3)o1` (stereo not drawn) [Example 35, N-[3-(6-chloro-1,3-benzoxazol-2-yl)-1-bicyclo[1.1.1]pentanyl]-5-(methylsulfonimidoyl)furan-2-carboxamide], the CC50 at 144 h in data set [1] is more than 100 µM. The figures for the IC50 in data set [2] and in data set [3] were 4.29 µM and 3.51 µM, respectively.
`CS(=O)(=O)c1cccc(C(=O)NC23CC(c4nc5ccc(Cl)cc5o4)(C2)C3)c1` [Example 36, N-[3-(6-chloro-1,3-benzoxazol-2-yl)-1-bicyclo[1.1.1]pentanyl]-3-methylsulfonyl-benzamide]: the CC50 at 144 h in data set [1] was more than 100 µM. Also, the half-maximal inhibitory concentration (IC50) in data set [2] stood at 2.25 µM; in data set [3] it was 2.5 µM.
Taken in the same sequence, the figures for `O=C(NC12CC(c3nc4ccc(Cl)cc4o3)(C1)C2)c1ccnc(C(F)(F)F)c1` [Example 37, N-[3-(6-chloro-1,3-benzoxazol-2-yl)-1-bicyclo[1.1.1]pentanyl]-2-(trifluoromethyl)pyridine-4-carboxamide] were more than 100 µM, 4.17 µM and 3.63 µM.
The matching figures for `O=C(NC12CC(c3nc4ccc(Cl)cc4o3)(C1)C2)c1ccnc(S(=O)(=O)C2CC2)c1` [Example 38, N-[3-(6-chloro-1,3-benzoxazol-2-yl)-1-bicyclo[1.1.1]pentanyl]-2-cyclopropylsulfonyl-pyridine-4-carboxamide]: more than 10 µM, 6.65 µM and 4.48 µM.
The matching figures for `CS(=O)(=O)Cc1ccc(C(=O)NC23CC(c4nc5ccc(Cl)cc5o4)(C2)C3)o1` [Example 39, N-[3-(6-chloro-1,3-benzoxazol-2-yl)-1-bicyclo[1.1.1]pentanyl]-5-(methylsulfonylmethyl)furan-2-carboxamide]: more than 100 µM, 0.648 µM and 0.75 µM.
The compound `CS(=N)(=O)Cc1ccc(C(=O)NC23CC(c4nc5ccc(Cl)cc5o4)(C2)C3)o1` (stereo not drawn) [Example 40, N-[3-(6-chloro-1,3-benzoxazol-2-yl)-1-bicyclo[1.1.1]pentanyl]-5-[(methylsulfonimidoyl)methyl]furan-2-carboxamide] came in with a half-maximal cytotoxic concentration (CC50) at 144 h in data set [1] of more than 100 µM. Further, the IC50 in data set [2] was found to be 6.99 µM; in data set [3], 4.07 µM.

The values are drawn from patent US20230286929A1, “AROMATIC BRIDGED RING AMIDE DERIVATIVES FOR THE TREATMENT AND PROPHYLAXIS OF HEPATITIS B VIRUS INFECTION” (Hoffmann-La Roche Inc., priority 2020, published 2023).
